Measured values published in ChEMBL document CHEMBL3797196, “Discovery of 3-aminopicolinamides as metabotropic glutamate receptor subtype 4 (mGlu4) positive allosteric modulator warheads engendering CNS exposure and in vivo efficacy” (Bioorg Med Chem Lett, 2016).
Active and inactive are the calls of the source. The calls are words filed in the database; no cut-off is given here.

Tests used:
[1] = target: Cytochrome P450 3A4 (Homo sapiens, UniProt P08684); assay: Inhibition of CYP3A4 in human liver microsomes using 1-hydroxymidazolam as substrate; format: ADME
[2] = tested on: Plasma; assay: Fraction unbound in rat plasma; format: ADME, cell-free
[3] = Half life in Sprague-Dawley rat by LC/MS analysis; format: ADME, organism-based; details: in vivo
[4] = Drug level in brain of Sprague-Dawley rat model of haloperidol-induced catalepsy at 1 mg/kg, po administered 60 mins after haloperidol-challenge measured after 30 mins; format: ADME, organism-based; details: read-out: Drug uptake
[5] = target: T1, Metabotropic glutamate receptor 4 (Homo sapiens, UniProt Q14833); assay: Positive allosteric modulation of human mGlu4 receptor expressed in CHO cells coexpressing Gqi5 assessed as potentiation of glutamate-induced calcium mobilization at 30 uM relative to (-)-PHCCC; format: functional, cell-based
[6] = target: Metabotropic glutamate receptor 4 (Rattus norvegicus, UniProt P31423); assay: Positive allosteric modulator activity at rat mGlu4 receptor
[7] = Volume of distribution at steady state in Sprague-Dawley rat by LC/MS analysis; format: ADME, organism-based; details: in vivo, read-out: Vdss
[8] = Intrinsic clearance in human hepatic microsomes; format: ADME, Liver; details: read-out: CLH
[9] = target: T1, Metabotropic glutamate receptor 4; assay: Positive allosteric modulator activity at human mGlu4 receptor expressed in CHO cells expressing Gqi5 by calcium mobilization assay; format: functional, cell-based
[10] = target: T2, Cytochrome P450 1A2 (Homo sapiens, UniProt P05177); assay: Inhibition of CYP1A2 in human liver microsomes using acetaminophen as substrate; format: ADME
T2 sequence (P05177 whole entry): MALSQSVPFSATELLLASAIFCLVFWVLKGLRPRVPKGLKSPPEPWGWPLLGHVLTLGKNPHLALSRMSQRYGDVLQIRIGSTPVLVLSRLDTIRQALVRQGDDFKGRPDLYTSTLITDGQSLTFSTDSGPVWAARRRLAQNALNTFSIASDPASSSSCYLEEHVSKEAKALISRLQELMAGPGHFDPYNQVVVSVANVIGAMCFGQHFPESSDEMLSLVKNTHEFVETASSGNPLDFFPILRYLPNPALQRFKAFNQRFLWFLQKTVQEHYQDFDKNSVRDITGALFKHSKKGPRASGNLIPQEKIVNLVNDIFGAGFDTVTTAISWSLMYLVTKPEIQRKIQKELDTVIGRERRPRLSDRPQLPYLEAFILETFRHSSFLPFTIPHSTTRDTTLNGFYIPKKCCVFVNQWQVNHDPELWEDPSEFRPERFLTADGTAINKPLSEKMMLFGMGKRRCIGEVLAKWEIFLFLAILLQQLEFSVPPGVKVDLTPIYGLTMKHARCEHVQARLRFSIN

[11] = target: Cytochrome P450 2D6 (Homo sapiens, UniProt P10635); assay: Inhibition of CYP2D6 in human liver microsomes using dextrophan tartarate as substrate; format: ADME
[12] = Ratio of drug level in brain of Sprague-Dawley rat model of haloperidol-induced catalepsy at 1 mg/kg, po to EC50 for positive allosteric modulator activity at rat mGlu4 receptor
[13] = target: Cytochrome P450 2C9 (Homo sapiens, UniProt P11712); assay: Inhibition of CYP2C9 in human liver microsomes using 4-hydroxydiclofenac as substrate; format: ADME
[14] = Clearance in Sprague-Dawley rat by LC/MS analysis; format: ADME, organism-based; details: in vivo
[15] = Ratio of drug level in brain to plasma in rat at 0.25 mg/kg, iv infused at 0.25 hr rate through cassette dosing schedule; format: ADME, organism-based
[16] = Intrinsic clearance in rat hepatic microsomes; format: ADME, Liver; details: read-out: CLH
[17] = Fraction unbound in human plasma; format: ADME, cell-free
[18] = Binding affinity to human P-gp assessed as efflux ratio by cell based assay; format: ADME
[19] = tested on: Rattus norvegicus; assay: Reversal of haloperidol-induced catalepsy in Sprague-Dawley rat at 1 mg/kg, po administered 60 mins after haloperidol-challenge measured after 30 mins; format: functional, organism-based
[20] = tested on: Brain; assay: Partition coefficient in brain of Sprague-Dawley rat model of haloperidol-induced catalepsy at 1 mg/kg, po administered 60 mins after haloperidol-challenge measured after 30 mins; format: ADME, organism-based; details: 0.5 h
[21] = tested on: Rattus norvegicus; assay: Reversal of haloperidol-induced catalepsy in Sprague-Dawley rat at 10 mg/kg, po administered 60 mins after haloperidol-challenge measured after 30 mins; format: functional, organism-based
[22] = Ratio of drug level in brain of Sprague-Dawley rat model of haloperidol-induced catalepsy at 1 to 10 mg/kg, po to EC50 for positive allosteric modulator activity at rat mGlu4 receptor
[23] = tested on: Rattus norvegicus; assay: Reversal of haloperidol-induced catalepsy in orally dosed Sprague-Dawley rat administered 60 mins after haloperidol-challenge measured after 30 mins; format: functional; details: po, read-out: MED
[24] = Drug level in brain of Sprague-Dawley rat model of haloperidol-induced catalepsy at 1 to 10 mg/kg, po administered 60 mins after haloperidol-challenge measured after 30 mins; format: ADME, organism-based; details: read-out: Drug uptake
[25] = tested on: Brain; assay: Partition coefficient in brain of Sprague-Dawley rat model of haloperidol-induced catalepsy at 1 to 10 mg/kg, po administered 60 mins after haloperidol-challenge measured after 30 mins; format: ADME, organism-based; details: 0.5 h
[26] = tested on: Rattus norvegicus; assay: Reversal of haloperidol-induced catalepsy in Sprague-Dawley rat at 3 mg/kg, po administered 60 mins after haloperidol-challenge measured after 30 mins; format: functional, organism-based

T1 sequence (Q14833 whole entry): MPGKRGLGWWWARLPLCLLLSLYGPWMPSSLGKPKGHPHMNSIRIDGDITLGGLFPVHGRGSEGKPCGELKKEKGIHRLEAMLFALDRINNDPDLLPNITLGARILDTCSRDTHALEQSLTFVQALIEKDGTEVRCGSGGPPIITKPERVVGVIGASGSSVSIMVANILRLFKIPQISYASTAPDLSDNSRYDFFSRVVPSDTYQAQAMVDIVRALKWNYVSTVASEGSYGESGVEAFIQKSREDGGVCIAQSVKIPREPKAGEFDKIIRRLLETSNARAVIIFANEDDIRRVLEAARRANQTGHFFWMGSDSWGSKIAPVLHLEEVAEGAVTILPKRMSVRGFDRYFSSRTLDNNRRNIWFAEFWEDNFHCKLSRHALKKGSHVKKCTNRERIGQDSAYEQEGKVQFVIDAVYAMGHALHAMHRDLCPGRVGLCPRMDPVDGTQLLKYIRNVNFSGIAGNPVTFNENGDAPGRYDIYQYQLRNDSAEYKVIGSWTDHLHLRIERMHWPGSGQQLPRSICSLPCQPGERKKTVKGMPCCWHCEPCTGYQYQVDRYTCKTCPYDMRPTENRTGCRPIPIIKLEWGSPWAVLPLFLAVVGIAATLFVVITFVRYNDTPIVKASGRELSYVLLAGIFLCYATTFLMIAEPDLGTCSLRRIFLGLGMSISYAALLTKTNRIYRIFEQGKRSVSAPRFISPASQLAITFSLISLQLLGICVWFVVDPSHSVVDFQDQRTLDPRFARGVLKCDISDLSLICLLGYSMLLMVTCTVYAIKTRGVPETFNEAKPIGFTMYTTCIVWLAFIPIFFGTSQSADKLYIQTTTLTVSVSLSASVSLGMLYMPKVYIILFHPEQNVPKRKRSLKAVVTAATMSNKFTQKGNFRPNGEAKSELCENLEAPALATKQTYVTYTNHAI
Cytochrome P450 2D6, sequence (P10635 whole entry): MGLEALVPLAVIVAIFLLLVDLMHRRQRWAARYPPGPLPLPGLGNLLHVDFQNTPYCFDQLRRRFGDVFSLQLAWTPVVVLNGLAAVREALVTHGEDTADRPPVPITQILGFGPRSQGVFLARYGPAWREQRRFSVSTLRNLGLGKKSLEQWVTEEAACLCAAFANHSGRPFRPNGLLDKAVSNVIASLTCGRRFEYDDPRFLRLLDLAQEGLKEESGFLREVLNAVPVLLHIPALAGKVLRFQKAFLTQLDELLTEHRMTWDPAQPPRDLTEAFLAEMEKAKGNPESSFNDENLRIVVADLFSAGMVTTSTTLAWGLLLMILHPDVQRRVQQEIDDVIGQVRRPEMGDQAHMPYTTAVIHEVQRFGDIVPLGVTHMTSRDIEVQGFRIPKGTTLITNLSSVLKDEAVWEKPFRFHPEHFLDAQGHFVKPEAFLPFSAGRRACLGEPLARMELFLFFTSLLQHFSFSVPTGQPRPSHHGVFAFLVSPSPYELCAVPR
Cytochrome P450 3A4, sequence (P08684 whole entry): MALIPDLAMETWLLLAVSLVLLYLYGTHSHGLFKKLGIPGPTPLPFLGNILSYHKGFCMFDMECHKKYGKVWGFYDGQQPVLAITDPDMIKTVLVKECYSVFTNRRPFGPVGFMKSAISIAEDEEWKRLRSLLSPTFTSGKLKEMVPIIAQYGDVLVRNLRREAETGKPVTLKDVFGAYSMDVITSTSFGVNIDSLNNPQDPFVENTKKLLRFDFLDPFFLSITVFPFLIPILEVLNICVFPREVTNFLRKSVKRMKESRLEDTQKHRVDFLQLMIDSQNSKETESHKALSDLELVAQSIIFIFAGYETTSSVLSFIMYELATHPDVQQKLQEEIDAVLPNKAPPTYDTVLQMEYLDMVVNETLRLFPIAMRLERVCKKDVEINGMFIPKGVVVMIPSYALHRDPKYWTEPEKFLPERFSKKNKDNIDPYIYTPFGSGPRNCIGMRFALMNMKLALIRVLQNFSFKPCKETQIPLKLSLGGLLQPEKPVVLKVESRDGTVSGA
Cytochrome P450 2C9, sequence (P11712 whole entry): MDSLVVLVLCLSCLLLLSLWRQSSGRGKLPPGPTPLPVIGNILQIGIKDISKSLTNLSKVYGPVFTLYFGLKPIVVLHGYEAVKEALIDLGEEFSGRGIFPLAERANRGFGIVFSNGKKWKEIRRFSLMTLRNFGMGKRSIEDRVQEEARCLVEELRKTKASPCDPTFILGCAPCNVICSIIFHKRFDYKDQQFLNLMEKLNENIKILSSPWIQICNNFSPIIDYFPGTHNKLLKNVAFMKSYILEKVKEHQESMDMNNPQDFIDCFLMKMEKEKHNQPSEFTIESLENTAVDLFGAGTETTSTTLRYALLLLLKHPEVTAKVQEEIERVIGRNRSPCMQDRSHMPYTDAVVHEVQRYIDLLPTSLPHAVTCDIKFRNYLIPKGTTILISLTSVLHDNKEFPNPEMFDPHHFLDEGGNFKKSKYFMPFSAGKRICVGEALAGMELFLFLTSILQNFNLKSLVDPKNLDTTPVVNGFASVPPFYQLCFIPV
Metabotropic glutamate receptor 4 (Rattus norvegicus, UniProt P31423), sequence (P31423 whole entry): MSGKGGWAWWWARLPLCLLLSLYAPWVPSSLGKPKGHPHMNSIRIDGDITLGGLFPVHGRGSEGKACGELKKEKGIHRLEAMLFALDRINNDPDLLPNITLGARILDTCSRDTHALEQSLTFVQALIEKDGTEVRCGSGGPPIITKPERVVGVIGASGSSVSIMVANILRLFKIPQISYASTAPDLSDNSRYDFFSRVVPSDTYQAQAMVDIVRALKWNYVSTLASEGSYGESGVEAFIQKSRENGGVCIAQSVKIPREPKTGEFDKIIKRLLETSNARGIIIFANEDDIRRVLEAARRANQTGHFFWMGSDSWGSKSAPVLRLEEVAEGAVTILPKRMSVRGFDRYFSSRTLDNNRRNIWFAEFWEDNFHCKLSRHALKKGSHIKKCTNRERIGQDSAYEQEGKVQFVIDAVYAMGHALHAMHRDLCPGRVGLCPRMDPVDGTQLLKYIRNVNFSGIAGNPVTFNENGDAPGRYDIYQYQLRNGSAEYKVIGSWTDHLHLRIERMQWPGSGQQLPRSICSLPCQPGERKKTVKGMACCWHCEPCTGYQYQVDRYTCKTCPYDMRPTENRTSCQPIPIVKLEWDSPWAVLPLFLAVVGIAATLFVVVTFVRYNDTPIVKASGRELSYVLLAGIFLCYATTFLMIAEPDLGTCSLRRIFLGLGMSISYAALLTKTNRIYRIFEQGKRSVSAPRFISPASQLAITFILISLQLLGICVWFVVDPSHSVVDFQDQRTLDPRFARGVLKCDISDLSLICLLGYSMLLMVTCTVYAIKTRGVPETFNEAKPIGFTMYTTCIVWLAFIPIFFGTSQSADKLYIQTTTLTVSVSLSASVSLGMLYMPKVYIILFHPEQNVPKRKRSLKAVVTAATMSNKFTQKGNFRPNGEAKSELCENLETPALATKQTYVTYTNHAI

Row | SMILES | %max [5] | EC50 ([9]; read-out: pEC50 (converted)) | EC50 ([9]; read-out: EC50) | other results
1 | Nc1cccnc1C(=O)Nc1ccc(N2C(=O)c3ccccc3C2=O)c(Cl)c1 | 89.1% | 0.0955 µM | – | IC50 [1]: > 30 µM; Fu [2]: 0.003; half-life [3]: 3.7 h; concentration at 0.5 h [4]: 334 nM; EC50 [6]: 0.128 µM; Vd [7]: 0.85 L/kg; CLint scaled [8]: 5.8 mL/min/kg; IC50 [10]: > 30 µM; IC50 [11]: > 30 µM; Ratio [12]: 2; IC50 [13]: 7.2 µM; clearance [14]: 3.98 mL/min/kg; Kp [15]: 1.31; CLint scaled [16]: 51 mL/min/kg; Fu [17]: 0.007; Ratio [18]: 1.2; Activity [19]: Active; Kp [20]: 0.3
2 | Fc1ccc(Nc2n[nH]c3cccnc23)cc1Cl | – | – | – | Activity [21]: Active; Activity [19]: Active
3 | CCc1cnc(Oc2ccc(NC(=O)c3ccncc3N)cc2Cl)nc1 | 44.2% | – | > 10 µM | –
4 | Nc1cccnc1C(=O)Nc1cccc(Cl)c1 | 88.1% | 0.575 µM | 0.587 µM | –
5 | Cc1ncc(Oc2ccc(NC(=O)c3ncccc3N)cc2Cl)cn1 | 89.8% | 1.35 µM | – | –
6 | Nc1cccnc1C(=O)Nc1ccc(N2CC(c3c(F)cccc3Cl)CC2=O)c(Cl)c1 (stereo not given) | 75.9% | 1.86 µM | – | –
7 | Nc1cccnc1C(=O)Nc1ccc(N2Cc3ccccc3C2=O)c(Cl)c1 | 43.9% | 0.234 µM | – | –
8 | Nc1cccnc1C(=O)Nc1ccc(N2Cc3ncccc3C2=O)c(Cl)c1 | 68.9% | 1.26 µM | – | –
9 | Nc1cccnc1C(=O)Nc1ccc(N2CCc3ccccc3C2=O)c(Cl)c1 | 60.7% | 0.912 µM | – | –
10 | COc1ccc2c(c1)C(=O)N(c1ccc(NC(=O)c3ncccc3N)cc1Cl)C2 | 71.7% | 0.316 µM | – | –
11 | Nc1cccnc1C(=O)Nc1ccc(N2CC3(CCCCC3)CC2=O)c(Cl)c1 | 52% | 1.29 µM | – | –
12 | CC1(C)CC(=O)N(c2ccc(NC(=O)c3ncccc3N)cc2Cl)C1 | 12.7% | – | > 10 µM | –
13 | Nc1cccnc1C(=O)Nc1ccc(N2CC3(CCCC3)CC2=O)c(Cl)c1 | 13.8% | – | > 10 µM | –
14 | Nc1cccnc1C(=O)Nc1ccc(N2C(=O)C3CCC2C3)c(Cl)c1 (stereo not given) | 47.7% | – | > 10 µM | –
15 | CC(C)CC1CC(=O)N(c2ccc(NC(=O)c3ncccc3N)cc2Cl)C1 (stereo not given) | 74.5% | 1.62 µM | – | –
16 | Nc1cccnc1C(=O)Nc1ccc(N2Cc3ccc(Cl)cc3C2=O)c(Cl)c1 | 42.3% | – | > 10 µM | –
17 | O=C(Nc1ccc(N2C(=O)c3ccccc3C2=O)c(Cl)c1)c1ncccc1O | 115% | – | 0.125 µM | –
18 | Nc1cccnc1C(=O)Nc1ccc(N2CC(c3cccnc3)CC2=O)c(Cl)c1 (stereo not given) | 92.8% | 2.51 µM | – | –
19 | CCc1cnc(Oc2ccc(NC(=O)c3nccnc3N)cc2Cl)nc1 | 104% | – | 0.296 µM | –
20 | Nc1cccnc1C(=O)Nc1ccc(N2CC(Cc3ccccc3)CC2=O)c(Cl)c1 (stereo not given) | 45.3% | 0.759 µM | – | –
21 | CC1(C2CC2)CC(=O)N(c2ccc(NC(=O)c3ncccc3N)cc2Cl)C1 (stereo not given) | 66.2% | 2.82 µM | – | –
22 | Nc1cccnc1C(=O)Nc1ccc(N2CCCC2=O)c(Cl)c1 | 39.6% | – | > 10 µM | –
23 | Nc1cccnc1C(=O)Nc1ccc(N2Cc3ccccc3CC2=O)c(Cl)c1 | 63.2% | 2.19 µM | – | –
24 | CCc1cnc(Oc2ccc(NC(=O)c3ncccc3N)cc2Cl)nc1 | 97.9% | 0.0646 µM | – | IC50 [1]: 21.1 µM; Fu [2]: 0.004; half-life [3]: 1.5 h; Ratio [22]: 3.5; minimal effective dose [23]: 1 mg/kg; EC50 [6]: 0.0466 µM; Vd [7]: 0.86 L/kg; concentration at 0.5 h [24]: 172 nM; CLint scaled [8]: 17.7 mL/min/kg; IC50 [10]: 2.6 µM; Kp [25]: 0.2; IC50 [11]: > 30 µM; IC50 [13]: > 30 µM; clearance [14]: 13.7 mL/min/kg; Kp [15]: 0.36; CLint scaled [16]: 46.1 mL/min/kg; Fu [17]: 0.004; Ratio [18]: 1.9; Activity [26]: Active
25 | Cc1cccc2c1C(=O)N(c1ccc(NC(=O)c3ncccc3N)cc1Cl)C2=O | 122% | 0.692 µM | – | –
26 | CC1c2ccccc2C(=O)N1c1ccc(NC(=O)c2ncccc2N)cc1Cl (stereo not given) | 76.8% | 3.98 µM | – | –
